Test results from patent US12415819B2, “Cu- and Ni-catalyzed decarboxylative borylation reactions” (The Scripps Research Institute, priority 2017, dated 2025).
Values after ≈ are worked out from the molar mass of the structure shown.

Experiments:
Test in all cases: Antibiotic susceptibility, broth microdilution
Assay type in all cases: cell-based
[1] = system: Enterococcus faecalis (VanA, BM4166); conditions: growth observed at 20 h, unit assumed
Experimental: (§1) Antibiotic susceptibilities were determined using the Clinical and Laboratory Standards Institute broth microdilution method (63). Briefly, antibiotics were prepared as 2-fold dilutions in 96-well plates containing cation-adjusted Mueller-Hinton broth (S. aureus strains) or brain-heart infusion broth (Enterococcus strains). Stock solutions of antibiotics were made in dimethyl sulfoxide (DMSO). […]

[2] = system: Enterococcus faecalis (Van B, ATCC 51299); conditions: growth observed at 20 h, unit assumed
Experimental: as §1

[3] = system: Staphylococcus aureus (ATCC 25923); conditions: growth observed at 20 h; unit assumed
Experimental: as §1

[4] = system: Enterococcus faecium (Van A, ATCC BAA-2317); conditions: growth observed at 20 h; unit assumed
Experimental: as §1

[5] = system: Staphylococcus aureus (methicillin resistant, ATCC 43300); conditions: MRSA; growth observed at 20 h; unit assumed
Experimental: as §1

Structure (SMILES): CN[C@@H](CC(C)C)C(=O)N[C@H]1C(=O)N[C@@H](CC(N)=O)C(=O)N[C@H]2CN[C@H]3C(=O)N[C@H](C(=O)N[C@@H](C(=O)O)c4cc(OC)cc(OC)c4-c4cc3ccc4OC)[C@H](O)c3ccc(c(Cl)c3)Oc3cc2cc(c3OC)Oc2ccc(cc2Cl)[C@H]1O (atropisomer, axis not shown) [Compound 43]
- MIC [1]: > 64 µg/mL
- MIC [2]: 8 µg/mL (≈ 6.74 µM)
- MIC [3]: 2 µg/mL (≈ 1.69 µM)
- MIC [4]: > 64 µg/mL
- MIC [5]: 2 µg/mL (≈ 1.69 µM)

Structure (SMILES): CN[C@H](CC(C)C)C(=O)N[C@H]1C(=O)N[C@@H](CC(N)=O)C(=O)N[C@H]2C(=O)N[C@H]3C(=O)N[C@H](C(=O)N[C@H](C(=O)O)c4cc(O)cc(O)c4-c4cc3ccc4O)[C@H](O)c3ccc(c(Cl)c3)Oc3cc2cc(c3O)Oc2ccc(cc2Cl)[C@H]1O [vancomycin aglycon]
- MIC [1]: > 64 µg/mL
- MIC [2]: 32 µg/mL (≈ 28 µM)
- MIC [3]: 1 µg/mL (≈ 0.874 µM)
- MIC [4]: > 64 µg/mL
- MIC [5]: 1 µg/mL (≈ 0.874 µM)

Structure (SMILES): CN[C@H](CC(C)C)C(=O)N[C@H]1C(=O)N[C@@H](CC(N)=O)C(=O)N[C@H]2C(=O)N[C@H]3C(=O)N[C@H](C(=O)N[C@H](C(=O)O)c4cc(O)cc(O)c4-c4cc3ccc4O)[C@H](O)c3ccc(c(Cl)c3)Oc3cc2cc(c3O[C@@H]2O[C@H](CO)[C@@H](O)[C@H](O)[C@H]2O[C@H]2C[C@](C)(N)[C@H](O)[C@H](C)O2)Oc2ccc(cc2Cl)[C@H]1O [vancomycin]
- MIC [1]: > 64 µg/mL
- MIC [2]: 16 µg/mL (≈ 11 µM)
- MIC [3]: 0.5 µg/mL (≈ 0.345 µM)
- MIC [4]: > 64 µg/mL
- MIC [5]: 0.5 µg/mL (≈ 0.345 µM)
